In ChEMBL document CHEMBL4627264, “Synthesis and evaluation of novel radioiodinated PSMA targeting ligands for potential radiotherapy of prostate cancer” (Bioorg Med Chem, 2020):
pIC50: −log10 of the molar value. Activity calls are given as the source filed them. The rule behind the calls is not given here.

Columns and labels:
[1] = molecular target: T1, Glutamate carboxypeptidase 2 (Homo sapiens, UniProt Q04609); experiment: Inhibition of […] binding to PSMA in human PC3-PIP cells at 0.2 nM incubated for 1 hr; assay type: cell-based
Target sequence in this assay (Q04609 whole entry, looked up): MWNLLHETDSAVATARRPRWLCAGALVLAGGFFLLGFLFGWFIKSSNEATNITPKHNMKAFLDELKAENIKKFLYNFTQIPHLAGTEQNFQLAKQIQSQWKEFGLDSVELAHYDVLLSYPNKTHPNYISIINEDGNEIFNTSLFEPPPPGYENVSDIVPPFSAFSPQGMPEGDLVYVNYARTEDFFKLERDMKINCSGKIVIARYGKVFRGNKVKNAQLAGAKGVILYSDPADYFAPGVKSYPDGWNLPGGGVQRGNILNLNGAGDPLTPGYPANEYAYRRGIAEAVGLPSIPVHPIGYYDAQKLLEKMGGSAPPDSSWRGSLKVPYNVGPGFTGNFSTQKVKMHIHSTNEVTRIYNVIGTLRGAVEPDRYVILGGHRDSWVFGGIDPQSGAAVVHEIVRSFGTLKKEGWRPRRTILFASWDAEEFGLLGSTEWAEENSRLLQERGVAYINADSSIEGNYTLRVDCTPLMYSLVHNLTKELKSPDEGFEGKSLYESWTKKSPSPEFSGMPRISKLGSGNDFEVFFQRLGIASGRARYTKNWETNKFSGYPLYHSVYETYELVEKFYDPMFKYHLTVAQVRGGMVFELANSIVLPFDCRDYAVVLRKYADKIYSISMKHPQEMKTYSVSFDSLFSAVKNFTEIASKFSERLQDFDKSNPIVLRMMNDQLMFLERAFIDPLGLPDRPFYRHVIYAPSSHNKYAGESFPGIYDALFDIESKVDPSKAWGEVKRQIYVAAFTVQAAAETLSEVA

[2] = Drug uptake in kidney of CD-1 nude mouse xenografted with PC3-PIP cells at 6 nM to 9 nM, iv measured after 2 mins to 1440 mins using 125I-labelled compound by gamma counter analysis; assay type: ADME, organism-based; conditions: in vivo, 0.006 µM
[3] = Drug uptake in human PC3-PIP cells at 0.2 nM incubated for 1 hr in presence of PSMA inhibitor PSMA-617 measured using 125I-labelled compound by gamma counter analysis; assay type: ADME, cell-based; conditions: 0.0002 µM
[4] = Drug uptake in liver of CD-1 nude mouse xenografted with PC3-PIP cells at 6 nM to 9 nM, iv measured at 1 hr using 125I-labelled compound by gamma counter analysis; assay type: ADME, organism-based; conditions: in vivo, 0.006 µM
[5] = Drug uptake in liver of CD-1 nude mouse xenografted with PC3-PIP cells at 6 nM to 9 nM, iv measured at 24 hrs using 125I-labelled compound by gamma counter analysis; assay type: ADME, organism-based; conditions: in vivo, 0.006 µM
[6] = Drug uptake in kidney of CD-1 nude mouse xenografted with PC3-PIP cells at 6 nM to 9 nM, iv measured at 1 hr using 125I-labelled compound by gamma counter analysis; assay type: ADME, organism-based; conditions: in vivo, 0.006 µM
[7] = Drug uptake in tumor of CD-1 nude mouse xenografted with PC3-PIP cells at 6 nM to 9 nM, iv measured at 24 hrs using 125I-labelled compound by gamma counter analysis; assay type: ADME, organism-based, Neoplasm; conditions: in vivo, 0.006 µM
[8] = Drug uptake in liver of CD-1 nude mouse xenografted with PC3-PIP cells at 6 nM to 9 nM, iv measured at 4 hrs using 125I-labelled compound by gamma counter analysis; assay type: ADME, organism-based; conditions: in vivo, 0.006 µM
[9] = Drug internalization in human PC3-PIP cells at 0.2 nM incubated for 1 hr followed by compound washout measured using 125I-labelled compound by gamma counter analysis; assay type: ADME, cell-based; conditions: 0.0002 µM
[10] = Drug uptake in tumor of CD-1 nude mouse xenografted with PC3-PIP cells at 6 nM to 9 nM, iv measured at 1 hr using 125I-labelled compound by gamma counter analysis; assay type: ADME, organism-based, Neoplasm; conditions: in vivo, 0.006 µM
[11] = Drug uptake in kidney of CD-1 nude mouse xenografted with PC3-PIP cells at 6 nM to 9 nM, iv measured at 4 hrs using 125I-labelled compound by gamma counter analysis; assay type: ADME, organism-based; conditions: in vivo, 0.006 µM
[12] = molecular target: T1, Glutamate carboxypeptidase 2; experiment: Binding affinity to PSMA in human PC3-PIP cells assessed as drug uptake per 10^6 cells at 0.2 nM incubated for 1 hr followed by compound washout measured using 125I-labelled compound by gamma counter analysis; assay type: ADME, cell-based; conditions: 0.0002 µM
Target sequence in this assay (Q04609 whole entry): as the sequence (Q04609 whole entry, looked up) above

[13] = Drug uptake in human PC3-PIP cells at 0.2 nM incubated prior to compound washout measured using 125I-labelled compound by gamma counter analysis; assay type: ADME, cell-based; conditions: 0.0002 µM, TDE = time-dependent effect
[14] = molecular target: T1, Glutamate carboxypeptidase 2; experiment: Binding affinity to PSMA in human PC3-PIP cells assessed as drug uptake per 10^6 cells at 0.2 nM incubated for 2 hrs followed by compound washout measured using 125I-labelled compound by gamma counter analysis; assay type: ADME, cell-based; conditions: 0.0002 µM
Target sequence in this assay (Q04609 whole entry): as the sequence (Q04609 whole entry, looked up) above

[15] = Drug uptake in kidney of CD-1 nude mouse xenografted with PC3-PIP cells at 6 nM to 9 nM, iv measured at 24 hrs using 125I-labelled compound by gamma counter analysis; assay type: ADME, organism-based; conditions: in vivo, 0.006 µM
[16] = Drug internalization in human PC3-PIP cells at 0.2 nM incubated for 2 hrs followed by compound washout measured using 125I-labelled compound by gamma counter analysis; assay type: ADME, cell-based; conditions: 0.0002 µM
[17] = Drug uptake in tumor of CD-1 nude mouse xenografted with PC3-PIP cells at 6 nM to 9 nM, iv measured at 4 hrs using 125I-labelled compound by gamma counter analysis; assay type: ADME, organism-based, Neoplasm; conditions: in vivo, 0.006 µM
[18] = molecular target: T1, Glutamate carboxypeptidase 2; experiment: Displacement of [125I]MIP-1095 from PSMA in human PC3-PIP cells after 1 hr by gamma counter analysis; assay type: cell-based
Target sequence in this assay (Q04609 whole entry): as the sequence (Q04609 whole entry, looked up) above

[19] = Uptake in kidney of CD-1 nude mouse xenografted with PC3-PIP cells at 6 nM to 9 nM, iv measured at 24 hrs using 125I-labelled compound by gamma counter analysis; conditions: in vivo, 0.006 µM
[20] = Uptake in kidney of CD-1 nude mouse xenografted with PC3-PIP cells at 6 nM to 9 nM, iv measured at 1 hr using 125I-labelled compound by gamma counter analysis; conditions: in vivo, 0.006 µM
[21] = Uptake in kidney of CD-1 nude mouse xenografted with PC3-PIP cells at 6 nM to 9 nM, iv measured at 4 hrs using 125I-labelled compound by gamma counter analysis; conditions: in vivo, 0.006 µM
[22] = Clearance in tumor of CD-1 nude mouse xenografted with PC3-PIP cells at 6 nM to 9 nM, iv measured at 4 hrs using 125I-labelled compound by gamma counter analysis; assay type: ADME, organism-based, Neoplasm; conditions: in vivo, 0.006 µM
[23] = Drug uptake in spleen of CD-1 nude mouse xenografted with PC3-PIP cells at 6 nM to 9 nM, iv measured at 4 hrs using 125I-labelled compound by gamma counter analysis; assay type: ADME, organism-based; conditions: in vivo, 0.006 µM
[24] = Drug uptake in small intestine of CD-1 nude mouse xenografted with PC3-PIP cells at 6 nM to 9 nM, iv measured at 1 hr using 125I-labelled compound by gamma counter analysis; assay type: ADME, organism-based; conditions: in vivo, 0.006 µM
[25] = Drug uptake in large intestine of CD-1 nude mouse xenografted with PC3-PIP cells at 6 nM to 9 nM, iv measured at 4 hrs using 125I-labelled compound by gamma counter analysis; assay type: ADME, organism-based; conditions: in vivo, 0.006 µM
[26] = Drug uptake in liver of CD-1 nude mouse xenografted with PC3-PIP cells at 6 nM to 9 nM, iv measured at 2 mins using 125I-labelled compound by gamma counter analysis; assay type: ADME, organism-based; conditions: in vivo, 0.006 µM
[27] = Drug uptake in large intestine of CD-1 nude mouse xenografted with PC3-PIP cells at 6 nM to 9 nM, iv measured at 1 hr using 125I-labelled compound by gamma counter analysis; assay type: ADME, organism-based; conditions: in vivo, 0.006 µM

Row | Compound | inhibition [1] | Drug uptake [2] | Drug uptake [3] | Drug uptake [9] | Drug uptake [12] | Drug uptake [13] | Drug uptake [14] | Drug uptake [16] | also measured
1 | O=C(O)CC[C@H](NC(=O)N[C@@H](CCCCNC(=O)[C@H](Cc1ccccc1)NC(=O)[C@H](CCC(=O)O)NC(=O)[C@H](CCC(=O)O)NC(=O)c1ccc(I)cc1)C(=O)O)C(=O)O | Active | – | – | – | – | – | – | – | –
2 | O=C(O)CC[C@H](NC(=O)N[C@@H](CCCCNC(=O)[C@H](Cc1ccccc1)NC(=O)[C@H](CCC(=O)O)NC(=O)[C@H](CCC(=O)O)NC(=O)c1ccc([125I])cc1)C(=O)O)C(=O)O | – | Active | Not Active | 37% | 43 %ID | Tde | 75 %ID | 47% | Drug uptake [4]: 7.18 % ID/g; Drug uptake [5]: 0.17 % ID/g; Drug uptake [6]: 71.8 % ID/g; Drug uptake [7]: 17 % ID/g; Drug uptake [8]: 3.64 % ID/g; Drug uptake [10]: 18.5 % ID/g; Drug uptake [11]: 80.3 % ID/g; Drug uptake [15]: 6.91 % ID/g; Drug uptake [17]: 23.1 % ID/g
3 | O=C(O)CC[C@H](NC(=O)N[C@@H](CCCCNC(=O)Nc1ccc([125I])cc1)C(=O)O)C(=O)O | – | Active | Not Active | 38% | 40 %ID | Tde | 53 %ID | 47% | Drug uptake [4]: 10.2 % ID/g; Drug uptake [5]: 0.71 % ID/g; Drug uptake [8]: 6.45 % ID/g
4 | O=C(O)CC[C@H](NC(=O)N[C@@H](CCCCNC(=O)[C@H](Cc1ccccc1)NC(=O)COc1ccc(C[C@H](NC(=O)[C@H](CCC(=O)O)NC(=O)[C@H](CCC(=O)O)NC(=O)c2ccc(I)cc2)C(=O)O)cc1)C(=O)O)C(=O)O | Active | – | – | – | – | – | – | – | pIC50 [18]: 8.45
5 | O=C(O)CC[C@H](NC(=O)N[C@@H](CCCCNC(=O)[C@H](Cc1ccccc1)NC(=O)COc1ccc(C[C@H](NC(=O)[C@H](CCC(=O)O)NC(=O)[C@H](CCC(=O)O)NC(=O)c2ccc([125I])cc2)C(=O)O)cc1)C(=O)O)C(=O)O | – | Active | Not Active | 62% | 39 %ID | Tde | 67 %ID | 64% | Drug uptake [19]: 136.4 % ID/g; Drug uptake [20]: 127.8 % ID/g; Drug uptake [7]: 11.1 % ID/g; Drug uptake [21]: 138.1 % ID/g; Drug uptake [10]: 17.2 % ID/g; Drug uptake [17]: 17.4 % ID/g
6 | O=C(O)CC[C@H](NC(=O)N[C@@H](CCCCNC(=O)[C@H](Cc1ccccc1)NC(=O)[C@H](CCC(=O)O)NC(=O)c1ccc([125I])cc1)C(=O)O)C(=O)O | – | Active | Not Active | 36% | 43 %ID | Tde | 76 %ID | 45% | Drug uptake [6]: 41.4 % ID/g; Drug uptake [10]: 10.7 % ID/g; Drug uptake [11]: 25.4 % ID/g; Drug uptake [17]: 5.17 % ID/g
7 | O=C(O)CC[C@H](NC(=O)N[C@@H](CCCCNC(=O)[C@H](Cc1ccccc1)NC(=O)COc1ccc(C[C@H](NC(=O)CNC(=O)c2ccc(I)cc2)C(=O)O)cc1)C(=O)O)C(=O)O | Active | – | – | – | – | – | – | – | pIC50 [18]: 8.88
8 | O=C(O)CC[C@H](NC(=O)N[C@@H](CCCCNC(=O)[C@H](Cc1ccccc1)NC(=O)COc1ccc(C[C@H](NC(=O)[C@H](CCC(=O)O)NC(=O)c2ccc([125I])cc2)C(=O)O)cc1)C(=O)O)C(=O)O | – | Active | Not Active | 58% | 49 %ID | Tde | 76 %ID | 60% | CL [22]: 45%; Drug uptake [23]: 15.4 % ID/g; Drug uptake [6]: 174.6 % ID/g; Drug uptake [10]: 26.2 % ID/g; Drug uptake [11]: 114.7 % ID/g; Drug uptake [17]: 14.3 % ID/g
9 | O=C(O)CC[C@H](NC(=O)N[C@@H](CCCCNC(=O)Nc1ccc(I)cc1)C(=O)O)C(=O)O [MIP-1095] | – | – | – | – | – | – | – | – | pIC50 [18]: 8.52
10 | O=C(O)CC[C@H](NC(=O)N[C@@H](CCCCNC(=O)[C@H](Cc1ccccc1)NC(=O)COc1ccc(C[C@H](NC(=O)Nc2ccc([125I])cc2)C(=O)O)cc1)C(=O)O)C(=O)O | – | Not Active | Not Active | 73% | 31 %ID | Tde | 60 %ID | 76% | Drug uptake [24]: 49.7 % ID/g; Drug uptake [25]: 51.4 % ID/g; Drug uptake [26]: 50.6 % ID/g

Continued, in another order:

Row | inhibition [1] | Drug uptake [2] | Drug uptake [3] | Drug uptake [9] | Drug uptake [12] | Drug uptake [13] | Drug uptake [14] | Drug uptake [16] | Compound | also measured
11 | Active | – | – | – | – | – | – | – | O=C(O)CC[C@H](NC(=O)N[C@@H](CCCCNC(=O)[C@H](Cc1ccccc1)NC(=O)[C@H](CCC(=O)O)NC(=O)c1ccc(I)cc1)C(=O)O)C(=O)O | –
12 | Active | – | – | – | – | – | – | – | O=C(O)CC[C@H](NC(=O)N[C@@H](CCCCNC(=O)[C@H](Cc1ccccc1)NC(=O)COc1ccc(C[C@H](NC(=O)Nc2ccc(I)cc2)C(=O)O)cc1)C(=O)O)C(=O)O | pIC50 [18]: 7.89
13 | Active | – | – | – | – | – | – | – | O=C(O)CC[C@H](NC(=O)N[C@@H](CCCCNC(=O)[C@H](Cc1ccccc1)NC(=O)COc1ccc(C[C@H](NC(=O)[C@H](CCC(=O)O)NC(=O)c2ccc(I)cc2)C(=O)O)cc1)C(=O)O)C(=O)O | –
14 | – | Not Active | Not Active | 51% | 36 %ID | Tde | 52 %ID | 55% | O=C(O)CC[C@H](NC(=O)N[C@@H](CCCCNC(=O)[C@H](Cc1ccccc1)NC(=O)COc1ccc(C[C@H](NC(=O)CNC(=O)c2ccc([125I])cc2)C(=O)O)cc1)C(=O)O)C(=O)O | Drug uptake [25]: 9.98 % ID/g; Drug uptake [26]: 29.4 % ID/g; Drug uptake [27]: 21.6 % ID/g
